# Measured values reported in patent US9301951B2 (Ardelyx, Inc., priority 2010, dated 2016).
# How the values were obtained:
# [1] = molecular target: T1, human NaP2b (SLC34A2) (Homo sapiens, UniProt O95436); assay: Inhibition of NaP2b-mediated Pi (33P) uptake in transfected HEK293 cells, human NaP2b; format: cell-based; conditions: HEK293 cells transfected with human NaP2b, 100 uM phosphate, 0.1 nM to 30 uM, read-out: pIC50 range for human NaP2b (converted)
# T1 construct: host or cells: HEK293
# T1 sequence (O95436 1-690): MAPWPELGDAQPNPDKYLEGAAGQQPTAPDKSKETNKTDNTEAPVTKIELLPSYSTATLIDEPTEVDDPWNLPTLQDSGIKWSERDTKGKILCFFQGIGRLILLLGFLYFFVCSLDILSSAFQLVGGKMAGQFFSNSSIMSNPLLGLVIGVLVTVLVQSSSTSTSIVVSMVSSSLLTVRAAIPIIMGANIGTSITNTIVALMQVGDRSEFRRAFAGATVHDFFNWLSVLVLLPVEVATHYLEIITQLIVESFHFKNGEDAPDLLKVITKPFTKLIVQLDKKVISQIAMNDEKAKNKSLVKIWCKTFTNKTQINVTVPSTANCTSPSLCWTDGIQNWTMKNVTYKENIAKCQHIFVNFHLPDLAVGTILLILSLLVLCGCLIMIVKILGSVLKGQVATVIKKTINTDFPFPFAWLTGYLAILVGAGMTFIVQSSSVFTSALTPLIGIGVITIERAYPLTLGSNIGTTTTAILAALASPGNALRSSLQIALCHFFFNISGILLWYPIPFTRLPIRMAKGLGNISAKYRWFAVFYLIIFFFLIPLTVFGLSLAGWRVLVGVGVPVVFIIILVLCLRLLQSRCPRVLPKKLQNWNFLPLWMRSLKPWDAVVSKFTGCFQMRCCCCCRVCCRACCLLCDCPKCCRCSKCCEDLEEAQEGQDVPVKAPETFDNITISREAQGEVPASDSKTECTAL
# How it was run: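 HEK293 cells transiently expressing mutated human NaP2b, with PiT transport pharmacologically silenced; sodium-dependent 33P-phosphate uptake (100 uM KH2PO4, pH 7.4) measured over 3–30 min at room temperature by scintillation. Twelve compound concentrations from 0.1 nM to 30 uM, in duplicate; pIC50 calculated.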
# [2] = test system: Sprague-Dawley rats; assay: In vivo co-dosing in chow (urine P out / P consumed); conditions: feed or water; rat; drug in chow, nominal 100 mg/kg/day (mean dose per line in table); urine 24-96 h; read-out: Mean % inhibition Urine Pout/P consumed
# Description: Male, 7-week-old Sprague-Dawley rats (Charles-River laboratories international, Hollister, Calif.) were allowed to acclimate for a minimum of 3 days. The experiment was initiated by switching animals to a synthetic diet (0.6% phosphorus and 0.6% calcium, Harlan Teklad TD.84122) for four days. After this time, the animals were placed into metabolic cages for daily monitoring of food and water consumption, as well as urine and fecal collections. Test compounds were incorporated into the powdered diet listed above containing 3% chocolate flavoring (w/w, BioServ #7345) at 1.3 mg test compound per gram of diet to achieve an average daily nominal dose of 100 mg/kg/day. The actual dose received by each animal was later determined by measuring prepared diet consumption and body weight. Urine samples were collected in three daily periods from 24-48, 48-72, and 72-96 hours of drug dosing. […] Phosphorus levels in the urine were determined by anion exchange chromatography using a Dionex ICS-3000 ion chromatography system. […] Elution of urine phosphate ions was monitored via conductivity detector and reported as ppm relative to a standard ion solution containing phosphate. Daily urinary P output relative to the P consumed in the prepared diet for each animal was calculated. […] The differences between the means of control and treated groups were evaluated by t tests. […]
# [3] = test system: 5/6 nephrectomy (5/6Nx) rat model of CKD; assay: In vivo evaluation in CKD rats (5/6 nephrectomy, 0.9% P diet, calcitriol); conditions: study 1, drug in chow, 2 weeks
# Description: To assess the ability of selected example compounds to impact the progression of chronic kidney disease (CKD), 5/6 nephrectomy (5/6Nx) rat model of CKD was used. […] 5/6 Nx rats were obtained from Charles River Labs (CRL, Hollister, Calif.). Upon arrival, the surgeries and extent of kidney damage in the animals were assessed by measuring serum creatinine, P, Ca, and BUN. Based on this analysis, rats with inconsistent kidney function were removed from the study and the remainder of the cohort was divided in to evenly stratified test groups. The remaining animals were then placed on the same synthetic diet used in the drug-in-chow studies (Example 350), except the P levels were adjusted to 0.9% P. Drugs are blended into this chow to achieve the required dosing rate. At this time, rats were also started on an activated Vitamin D regimen in which they were injected intraperitoneally with calcitriol at 80 ng/kg three times a week. Once a week, serum was collected via retro orbital bleeding for analysis of serum P and creatinine utilizing an ACE ALERA blood chemistry analyzer. […] Unless otherwise indicated, the data shown is from the serum collected at 2 weeks after initiation of the treatment regimen. In addition, for study #3, during the third week of the study, the animals were placed in metabolic cages for two days, and urine collected for the final 24 hours.
IC50 [1] [nM],SMILES,inhibition in vivo at 100 mg/kg/day [2] [%],Ser CRE [3] [mg/dL],Ser P [3] [mg/dL],"FGF23, pg/mL ([3]; serum)"
1000 to 7940,"O=C(O)CCSCc1cccc(C(=O)Nc2ccc(N3CCCCC3)cc2-c2cc(C(=O)NCc3cccc(C(F)(F)F)c3)ccn2)c1 [Example 1.1, 3-(3-((2-(4-((3-(trifluoromethyl)benzyl)carbamoyl)pyridin-2-yl)-4-(piperidin-1-yl)phenyl)carbamoyl)-benzylthio)propanoic acid]",–,–,–,–
< 1000,"CCN(CC)c1ccc(NC(=O)c2cccc(C(=O)N(C)CCN3CCOCC3)c2)c(-c2cc(C(=O)NCc3cccc(C(F)(F)F)c3)ccn2)c1 [Example 25, N1-(4-(Diethylamino)-2-(4-((3-(trifluoromethyl)benzyl)carbamoyl)pyridin-2-yl)phenyl)-N3-methyl-N3-(2-morpholinoethyl)isophthalamide]",10 to 30,1.3,10,"~10,000 pg/mL"
